Reference: paper PMC4303524 (Organic & biomolecular chemistry, 2015)
Changes are numbered by the printed parent chain. Read-outs that look alike come from different tables or passages of the source.

What was measured:
[1] = target: T1, LasR W60F (Pseudomonas aeruginosa, UniProt P25084, W60F); experiment: β-galactosidase reporter-gene assay, LasR activation; type: cell-based; details: for effect of mutation on LasR activation (in words): ligand at 100 nM
T1 sequence (P25084 1-239 W60F): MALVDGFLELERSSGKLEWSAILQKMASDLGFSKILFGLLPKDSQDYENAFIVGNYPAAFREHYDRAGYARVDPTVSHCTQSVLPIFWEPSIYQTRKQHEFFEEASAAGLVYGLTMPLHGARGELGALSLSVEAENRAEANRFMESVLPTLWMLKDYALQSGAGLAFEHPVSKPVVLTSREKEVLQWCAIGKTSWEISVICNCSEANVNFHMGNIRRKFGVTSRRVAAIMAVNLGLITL

[2] = target: T2, LasR R61M (Pseudomonas aeruginosa, UniProt P25084, R61M); experiment: as above; type: cell-based
T2 sequence (P25084 1-239 R61M): T1 sequence (P25084 1-239 W60F) with F60W, R61M

[3] = target: T3, LasR T115V (Pseudomonas aeruginosa, UniProt P25084, T115V); experiment: as above; type: cell-based
T3 sequence (P25084 1-239 T115V): T1 sequence (P25084 1-239 W60F) with F60W, T115V

[4] = target: T4, LasR S129A (Pseudomonas aeruginosa, UniProt P25084, S129A); experiment: as above; type: cell-based
T4 sequence (P25084 1-239 S129A): T1 sequence (P25084 1-239 W60F) with F60W, S129A

[5] = target: T5, wild-type LasR (Pseudomonas aeruginosa, UniProt P25084); details: read-out: EC50 value in wild-type LasR; cited from earlier work
T5 sequence (P25084 1-239): T1 sequence (P25084 1-239 W60F) with F60W

[6] = target: T6, LasR Y56F (Pseudomonas aeruginosa, UniProt P25084, Y56F); experiment: β-galactosidase reporter-gene assay, LasR activation; type: cell-based
T6 sequence (P25084 1-239 Y56F): T1 sequence (P25084 1-239 W60F) with Y56F, F60W

[7] = target: T5, wild-type LasR; experiment: as above; type: cell-based; details: E. coli reporter, geometric mean of biological triplicates
[8] = target: T7, LasR Y93F (Pseudomonas aeruginosa, UniProt P25084, Y93F); experiment: as above; type: cell-based
T7 sequence (P25084 1-239 Y93F): T1 sequence (P25084 1-239 W60F) with F60W, Y93F

[9] = target: T8, LasR T75V (Pseudomonas aeruginosa, UniProt P25084, T75V); experiment: as above; type: cell-based
T8 sequence (P25084 1-239 T75V): T1 sequence (P25084 1-239 W60F) with F60W, T75V

[10] = target: T9, LasR D73L (Pseudomonas aeruginosa, UniProt P25084, D73L); experiment: as above; type: cell-based
T9 sequence (P25084 1-239 D73L): T1 sequence (P25084 1-239 W60F) with F60W, D73L

[11] = target: T10, LasR W88F (Pseudomonas aeruginosa, UniProt P25084, W88F); experiment: as above; type: cell-based
T10 sequence (P25084 1-239 W88F): T1 sequence (P25084 1-239 W60F) with F60W, W88F

[12] = E. coli reporter, geometric mean of biological triplicates

In the case of `CCCCCCCCCCCC(=O)N[C@H]1CCSC1=O` [Ligand 5], the “effect of mutation on LasR activation (in words)” value (shortened to “effect of mutation”) [1] is reported as “significantly decreased LasR activation”, the “effect of mutation” value ([2]; ligand at 100 nM) is reported as “no significant effect” and the “effect of mutation” value ([3]; ligand at 100 nM) is reported as “destroyed LasR activation”. The “effect of mutation” value ([4]; ligand at 100 nM) was “significantly decreased LasR activation”.
For `CCCCCCCCCCCC(=O)N[C@H]1CCOC1=O` [Ligand 4], the EC50 [5] is listed as 40 nM, the “effect of mutation” value [1] is listed as “significantly decreased LasR activation” and the “effect of mutation” value ([6]; ligand at 100 nM) is listed as “small but significant impact”. For the same molecule, the “effect of mutation” value ([2]; ligand at 100 nM) was “perhaps only a slight effect”, the “effect of mutation” value ([3]; ligand at 100 nM) was “destroyed LasR activation” and the “effect of mutation” value ([4]; ligand at 100 nM) was “significantly decreased LasR activation”.
Molecule `CCCCCCCCCC(=O)CC(=O)NC1CCSC1=O` (centres unmarked) [Ligand 1] has an EC50 [7] of 5 nM, an EC50 [1, 12] of 70 nM and an EC50 [6, 12] of 5 nM. For the same molecule, the EC50 [8, 12] was 10 nM, the EC50 [2, 12] was 80 nM and the EC50 [3, 12] was 3500 nM. It also gave an EC50 [9, 12] of 0.5 nM and an EC50 [4, 12] of 30 nM.
With `CCCCCCCCCC(=O)CC(=O)N[C@H]1CCOC1=O` [OdDHL, N-(3-oxo)-dodecanoyl L-homoserine lactone, reference compound] the “maximal activation (% vs. wild-type)” value ([10]; 10 μM OdDHL) was 0%, the EC50 ([10]; E. coli reporter) was “inactive” and the “maximal activation (% vs. wild-type)” value ([1]; 10 μM OdDHL) was 73%. The “maximal activation (% vs. wild-type)” value ([6]; 10 μM OdDHL) was 102%, the “maximal activation (% vs. wild-type)” value ([8]; 10 μM OdDHL) was 93% and the “maximal activation (% vs. wild-type)” value ([2]; 10 μM OdDHL) was 56%. The “maximal activation (% vs. wild-type)” value ([3]; 100 μM OdDHL) was 109%, the “maximal activation (% vs. wild-type)” value ([11]; 10 μM OdDHL) was 0% and the EC50 ([11]; E. coli reporter) was “inactive”. The “maximal activation (% vs. wild-type)” value ([9]; 10 μM OdDHL, mean of biological triplicates) was 106% and the “maximal activation (% vs. wild-type)” value ([4]; 10 μM OdDHL) was 103%.
In the case of `CCCCCCCCCC(=O)CC(=O)Nc1ccccc1` [Ligand 3], the “activity in mutant LasR (activation, in words)” value (“activity in mutant LasR” for short) ([1]; ligand at 10 μM) is reported as “moderate agonist”, the “activity in mutant LasR” value ([6]; ligand at 10 μM) is reported as “moderate agonist” and the “activity in mutant LasR” value ([8]; ligand at 10 μM) is reported as “flipped the activity of 3 into an agonist”.
With `CCCCCCCCCC(=O)CC(=O)NC1CCCC1` [Ligand 2] the “effect of mutation” value ([2]; ligand at 10 μM) was “significantly detrimental”, the “effect of mutation” value ([3]; ligand at 10 μM) was “significantly detrimental” and the “effect of mutation” value ([4]; ligand at 10 μM) was “significantly detrimental”.
